These results are taken from US20220313698A1, “MODULATORS OF CYSTIC FIBROSIS TRANSMEMBRANE CONDUCTANCE REGULATOR” (Vertex Pharmaceuticals Incorporated, priority 2019, published 2022).

pEC50: −log10 of the molar value. Some results are limits rather than exact numbers.

The target in this test is CFTR-mediated chloride transport (Homo sapiens, UniProt P13569). Kind of test: Corrector Assay A - membrane potential dye assay (enteroid cells). The conditions noted are these: for Corrector Assay A % activity: % of chloride transport of triple combination control (1 μM (14S)-dispiro macrocycle + 3 μM tezacaftor + 300 nM ivacaftor); for pEC50: read-out: Corrector Assay A EC50, human intestinal enteroid cells, 18-24 h incubation, acute 10 μM forskolin + 300 nM ivacaftor.

Regarding `CC(C)(C)CCOc1ccn(-c2ccc3c(n2)N2C[C@@H](CC[C@H](c4ccccn4)Nc4cccc(n4)S(=O)(=O)NC3=O)CC2(C)C)n1` [Compound 320, (14S,17R)-8-[3-(3,3-dimethylbutoxy)-1H-pyrazol-1-yl]-12,12-dimethyl-17-(pyridin-2-yl)-2λ^6-thia-3,9,11,18,23-pentaazatetracyclo[17.3.1.111,14.05,10]tetracosa-1(22),5,7,9,19(23),20-hexaene-2,2,4-trione], the “Corrector Assay A % activity” value is on record as “+++ (+++ is >60%)” and the pEC50 (in general, the negative decadic logarithm of the EC50, by convention in mol/L) is over 6.00. Regarding `CC1(C)C[C@@H]2CC[C@@H](c3ccccn3)Nc3cccc(n3)S(=O)(=O)NC(=O)c3ccc(Cc4ccccc4)nc3N1C2` [Compound 160], the “Corrector Assay A % activity” value is listed as “++ (++ is 30-60%)” and the pEC50 is over 6.00. For the compound `CC(C)(C)OC(=O)N1CCC(c2ccnc(C3CC[C@@H]4CN(c5nc(C(C)(C)C)ccc5C(=O)NS(=O)(=O)c5cccc(n5)N3)C(C)(C)C4)c2)CC1` (stereo partly drawn) [Compound 117, tert-butyl 4-{2-[(14S)-8-tert-butyl-12,12-dimethyl-2,2,4-trioxo-2λ^6-thia-3,9,11,18,23-pentaazatetracyclo[17.3.1.111,14.05,10]tetracosa-1(23),5(10),6,8,19,21-hexaen-17-yl]pyridin-4-yl}piperidine-1-carboxylate], the “Corrector Assay A % activity” value is reported as “+++ (+++ is >60%)” and the pEC50 is over 6.00.

Take `CC(C)(C)c1ccc2c(n1)N1C[C@@H](CC[C@@H](c3cc(-c4cn[nH]c4)ccn3)Nc3cccc(n3)S(=O)(=O)NC2=O)CC1(C)C` (single isomer, unassigned) [Compound 69]: the “Corrector Assay A % activity” value was “++ (++ is 30-60%)” and the pEC50 is over 6.00. With `CC(C)(C)c1ccc2c(n1)N1C[C@@H](CC[C@@H](c3cc(C4CCOCC4)ccn3)Nc3cccc(n3)S(=O)(=O)NC2=O)CC1(C)C` (single isomer, unassigned) [Compound 121], the “Corrector Assay A % activity” value is given as “+++ (+++ is >60%)” and the pEC50 is over 6.00. For the compound `CC(C)(C)c1ccc2c(n1)N1CC(CCCNc3cc(O)cc(n3)S(=O)(=O)NC2=O)CC1(C)C` (single isomer, unassigned) [Compound 251, 8-tert-butyl-21-hydroxy-12,12-dimethyl-2λ^6-thia-3,9,11,18,23-pentaazatetracyclo[17.3.1.111,14.05,10]tetracosa-1(23),5,7,9,19,21-hexaene-2,2,4-trione], the “Corrector Assay A % activity” value is “+ (+ is <30%)”.

With `COCCN1CCC2(CC1)CC(NC(=O)C1CC[C@@H]3CN(c4nc(C(C)(C)C)ccc4C(=O)NS(=O)(=O)c4cccc(n4)N1)C(C)(C)C3)C2` (single isomer, unassigned) [Compound 220], the “Corrector Assay A % activity” value is recorded as “+++ (+++ is >60%)” and the pEC50 was 5.52 to 6.00. `CC(C)(C)c1ccc2c(n1)N1C[C@@H](CCC(C(=O)NC3CC4(CCNCC4)C3)Nc3cccc(n3)S(=O)(=O)NC2=O)CC1(C)C` (single isomer, unassigned) [Compound 222]: the “Corrector Assay A % activity” value is reported as “++ (++ is 30-60%)” and the pEC50 is under 5.52. Take `CC(C)(C)c1ccc2c(n1)N1C[C@@H](CCC(c3ccc(CCCN)cn3)Nc3cccc(n3)S(=O)(=O)NC2=O)CC1(C)C` (stereo partly drawn) [Compound 138, (14S)-17-[5-(3-aminopropyl)pyridin-2-yl]-8-tert-butyl-12,12-dimethyl-2λ^6-thia-3,9,11,18,23-pentaazatetracyclo[17.3.1.111,14.05,10]tetracosa-1(23),5(10),6,8,19,21-hexaene-2,2,4-trione]: the “Corrector Assay A % activity” value is listed as “++ (++ is 30-60%)” and the negative-log EC50 (pEC50) is over 6.00. The like results for `CC(C)(C)c1cccc(C2CC[C@@H]3CN(c4nc(C(C)(C)C)ccc4C(=O)NS(=O)(=O)c4cccc(n4)N2)C(C)(C)C3)n1` (single isomer, unassigned) [Compound 178] were, in that order, “+ (+ is <30%)” and over 6.00. Regarding `CC(C)(C)c1ccc2c(n1)N1C[C@@H](CCC(c3ccc(N4CCCC4)cn3)Nc3cccc(n3)S(=O)(=O)NC2=O)CC1(C)C` (stereo partly drawn) [Compound 163], the “Corrector Assay A % activity” value is given as “++ (++ is 30-60%)” and the pEC50 was over 6.00. Consider `CC(C)N1CCN(c2ccc3c(n2)N2C[C@@H](CC[C@H](c4ccccn4)Nc4cccc(n4)S(=O)(=O)NC3=O)CC2(C)C)C1=O` [Compound 332], for which the “Corrector Assay A % activity” value is reported as “+++ (+++ is >60%)” and the pEC50 was 5.52 to 6.00.

Regarding `CC(C)CN1c2cccc(n2)S(=O)(=O)NC(=O)c2ccc(C(C)(C)C)nc2N2C[C@@H](CCC1c1ccccc1)CC2(C)C` (single isomer, unassigned) [Compound 270], the “Corrector Assay A % activity” value was “+ (+ is <30%)”. As for `COC(=O)C1CC[C@@H]2CN(c3nc(C(C)(C)C)ccc3C(=O)NS(=O)(=O)c3cccc(n3)N1)C(C)(C)C2` (single isomer, unassigned) [Compound 225], the “Corrector Assay A % activity” value was “++ (++ is 30-60%)” and the pEC50 is over 6.00.

As for `CC(C)(C)c1ccc2c(n1)N1C[C@@H](CCC(c3ccc(N4CCC4)cn3)Nc3cccc(n3)S(=O)(=O)NC2=O)CC1(C)C` (stereo partly drawn) [Compound 175], the “Corrector Assay A % activity” value is “+++ (+++ is >60%)” and the pEC50 was over 6.00. On to `CC(C)(C)c1ccc2c(n1)N1C[C@@H](CCC(c3cc(C4CCNCC4)ccn3)Nc3cccc(n3)S(=O)(=O)NC2=O)CC1(C)C` (stereo partly drawn) [Compound 123], for which the “Corrector Assay A % activity” value is listed as “+++ (+++ is >60%)” and the pEC50 is over 6.00.

As for `CN1CCN(c2ccc(C3CC[C@@H]4CN(c5nc(C(C)(C)C)ccc5C(=O)NS(=O)(=O)c5cccc(n5)N3)C(C)(C)C4)nc2)CC1` (stereo partly drawn) [Compound 201, (14S)-8-tert-butyl-12,12-dimethyl-17-[5-(4-methylpiperazin-1-yl)pyridin-2-yl]-2λ^6-thia-3,9,11,18,23-pentaazatetracyclo[17.3.1.111,14.05,10]tetracosa-1(23),5(10),6,8,19,21-hexaene-2,2,4-trione], the “Corrector Assay A % activity” value is “+++ (+++ is >60%)” and the pEC50 is over 6.00. Take `CC(C)(C)c1ccc2c(n1)N1C[C@@H](CC[C@@H](c3cc(-c4cc[nH]n4)ccn3)Nc3cccc(n3)S(=O)(=O)NC2=O)CC1(C)C` (single isomer, unassigned) [Compound 73]: the “Corrector Assay A % activity” value is “+++ (+++ is >60%)” and the pEC50 was over 6.00. As to `CC(C)(C)c1ccc2c(n1)N1C[C@@H](CCC(CC(O)CO)Nc3cccc(n3)S(=O)(=O)NC2=O)CC1(C)C` (single isomer, unassigned) [Compound 31], the “Corrector Assay A % activity” value is reported as “++ (++ is 30-60%)” and the pEC50 was over 6.00. Take `CC(C)C1CC[C@@H]2CN(c3nc(-n4ccc(OCCC5(C(F)(F)F)CC5)n4)ccc3C(=O)NS(=O)(=O)c3cccc(n3)N1)C(C)(C)C2` (single isomer, unassigned) [Compound 357]: the “Corrector Assay A % activity” value is “+++ (+++ is >60%)” and the pEC50 is over 6.00. In the case of `CC(C)CC#Cc1ccc2c(n1)N1C[C@@H](CC[C@@H](c3ccccn3)Nc3cccc(n3)S(=O)(=O)NC2=O)CC1(C)C` [Compound 158], the “Corrector Assay A % activity” value is listed as “++ (++ is 30-60%)” and the pEC50 is over 6.00.

With `CC(C)(C)c1ccc2c(n1)N1C[C@@H](CCC(c3ccc(Cl)cn3)Nc3cccc(n3)S(=O)(=O)NC2=O)CC1(C)C` (single isomer, unassigned) [Compound 208], the “Corrector Assay A % activity” value is “+++ (+++ is >60%)” and the pEC50 was over 6.00.
